Here are results for 2 molecules from patent US20110171294A1, “Enzyme composition and application thereof in the treatment of pancreatic insufficiency” (DSM IP ASSETS B.V., priority 2008, published 2011).

Non-standard residues stand in square brackets, D forms with d. Residues, ends and D or L forms follow the SMILES beside them. *: point of attachment. Sta = CC(C)C[C@H](N)[C@@H](O)CC(=O)O; Isovaleryl = CC(C)CC(=O)*

The subject of test [1] is Sodium caseinate. As to the kind of experiment: Casein hydrolysis under simulated stomach conditions (visual impression, di-/tripeptides, free amino acids). The test is classed as biochemical. To be noted: 2.5 mg/ml caseinate suspension, pH 4.0, 37 degrees C., 0.25 mg/ml of each enzyme.
Test [2] has as its system proline specific protease. Kind of test: Effect of pepstatin on the proline specific protease. To be noted: pepstatin 1.67 microgram/ml. The format is biochemical, Aspergillus niger. The protocol:
Prerequisite for a successful enzyme therapy according to the present application is an efficient degradation of dietary proteinaceous material in the stomach. […] Citrate/HCl buffers of 0.2 mol/l were used for obtaining the required acid pH conditions. […] Residual activities of the proline specific protease were measured kinetically at 405 nm using the synthetic substrates Ala-Ala-Pro-pNA (Bachem, Switzerland). […] Absorbance was measured kinetically for 10 min at 405 nm at 30° C. making use of a TECAN Genios MTP Reader (Salzburg, Vienna).

On to “Pepsin: gastric aspartic endoprotease (EC 3.4.23.1) from porcine stomach mucosa, Sigma”, for which, in test [1], the “Visual impression after 45″” value is given as “turbid” and the “Visual impression after 90″” value is listed as “clear”.

In the case of `CC(C)CC(=O)N[C@H](C(=O)N[C@H](C(=O)N[C@@H](CC(C)C)[C@@H](O)CC(=O)N[C@@H](C)C(=O)N[C@@H](CC(C)C)[C@@H](O)CC(=O)O)C(C)C)C(C)C` [pepstatin, Pepstatin] (Isovaleryl-VV[Sta]A[Sta]-OH), in test [2], the “inhibitory effect on the proline specific protease” value is recorded as “no inhibitory effect”.
